Test: aqueous solubility at different pH
Excerpt: Moreover, alkaline agents, such as sodium bicarbonate, calcium carbonate, meglumine, and calcium phosphate, can be used to convert salt forms of amine drugs to free base. Generally, free bases have much lower solubility than their salts.

COc1ccc2c3c1O[C@H]1C(=O)CC[C@@]4(O)[C@@H](C2)N(C)CC[C@]314.Cl [oxycodone hydrochloride]
solubility (pH 1.5, simulated gastric fluid): 182 mg/mL
solubility (pH 7.4, aqueous buffer): 6.1 mg/mL
